Test results as given in US20090326003A1, “PYRAZOLO (3, 4-B) PYRIDINE DERIVATIVES AS PDE4 INHIBITORS” (priority 2006, published 2009).

Tests used:
[1] = test system: humans with histories of allergic rhinitis; settings: orally 500 ug once daily for 9 days; intranasal allergen provocation (pollen extracts); cited from earlier work
COPD patients = settings: cited from earlier work
[2] = test system: atopic dermatitis patients; settings: 0.5% ointment, twice daily topical application; cited from earlier work
[3] = test system: TNF-α production in human PBMC (peripheral blood mononuclear cells); test: Inhibition of TNF-alpha production in human PBMC (MSD technology); type: cell-based; settings: inhibition of LPS-stimulated TNF-α production in human PBMC; measured and/or mean; read-out: PBMC pIC50 (MSD assay) (converted)
Method: A 96-well plate (96 MicroWell™ Plates Nunclon™Δ-High Flange Design, Fisher Scientific UK, Bishop Meadow Road, Loughborough LE 11 5 RG, Leicestershire, UK) is prepared by initially adding to column 1 ca. 10 mM of test compound dissolved in DMSO. […] The compound is further diluted with DMSO into columns 2 to 9 by 8 successive 3fold dilutions using the Biomek® FX Laboratory Automation Workstation (Beckman Coulter, Inc., 4300 N. Harbor Boulevard, P.O. Box 3100, Fullerton, Calif. 92834-3100 USA). Column 10 is used as a DMSO negative control (High Signal, 0% response), whilst column 11, which contains 10 mM of the PDE4 inhibitor roflumilast, is used as a positive control (Low Signal, 100% response). About 1 μl (about 1 ul) of compound is transferred to the compound plate using the Biomek® FX.
PBMC cells (peripheral blood mononuclear cells) are prepared from heparinised human blood (using 1% v/v Heparin Sodium 10001 U/ml Endotoxin Free, Leo Laboratories Ltd., Cashel Road, Dublin 12. Ireland, Cat No: PL0043/0149) from normal volunteers using the Accuspin™ System-Histopaque®-1077 essentially (Sigma-Aldrich Company Ltd., The Old Brickyard New Rd, Gillingham Dorset SP8 4XT). About 20 ml of blood is overlaid onto 15 ml Histopaque® in Accuspin™ tubes. The tube is then centrifuged at about 800 g for ca. 20 minutes. The cells are collected from the interface, washed by centrifugation (ca. 1300 g, ca. 10 minutes) and resuspended in RPMI1640 medium (Low endotoxin RPMI1640 medium, Cat No: 31870-025, Invitrogen Corporation Invitrogen Ltd, 3 Fountain Drive, Inchinnan Business Park, Paisley PA4 9RF, UK) containing 10% foetal calf serum, 1% L-glutamine (Invitrogen Corporation, Cat No: 25030024) and 1% penicillin/streptomycin (Invitrogen Corporation, Cat No: 15140-122). Viable cells are counted by trypan blue staining and diluted to 1×10^6 viable cells/ml. About 50 μl (about 50 ul) of diluted cells and about 75 μl (about 75 ul) of LPS (ca. 1 ng/ml final; Sigma Cat No: L-6386) are added to the compound plate, which is then incubated at 37° C., 5% CO2, for 20 hours.
The supernatant is removed and the concentrations of TNF-α are determined by electrochemiluminescence assay using the Meso Scale Discovery (MSD) technology (Meso Scale Discovery, 9238 Gaither Road, Gaithersburg, Md. 20877, USA). See the “TNF-α (TNF-alpha) MSD Assay” described below for typical details.
Using the Biomek FX, 25 μl (25 ul) of MSD Human Serum Cytokine Assay Diluent (Meso Scale Discovery, 9238 Gaither Road, Gaithersburg, Md. 20877) is added to a 96-well High-Bind MSD plate pre-coated with anti-hTNF alpha capture antibody (MA6000) and then incubated for 24 hours at 4° C. to prevent non-specific binding. […]
For the PBMC assay, about 20 μl (ul) of diluted sulfo-TAG antibody (ca. 1 μg/ml final) is added to each well, and the plates/wells are shaken at room temperature for 2 hours. Finally, about 90 μl (ul) of MSD Read Buffer P (diluted to 2.5 times with distilled water) is added and the plates are read on a MSD Sector 6000.
Data analysis is performed with ActivityBase/XC50 module (ID Business Solutions Ltd., 2 Occam Court, Surrey Research Park, Guildford, Surrey, GU2 7QB UK). Data are normalized and expressed as % inhibition using the formula 100*((U-C1)/(C2-C1)) where U is the unknown value, C1 is the average of the high signal (0%) control wells (column 10), and C2 is the average of the low signal (100%) control wells (column 11). […]

[4] = biological target: T1, PDE4B (human recombinant) (Homo sapiens, UniProt Q07343); test: PDE4B inhibition, fluorescence polarisation (FP) and/or SPA assay; type: biochemical; settings: n=1 or average of 2 or more readings, accuracy ±about 0.5 log unit, read-out: PDE4B pIC50 (generally in FP assay) (±about 0.5) (converted)
T1 construct: made in house
Source text: Human recombinant PDE4B, in particular the 2B splice variant thereof (HSPDE4B2B), is disclosed in WO 94/20079 and also M. M. McLaughlin et al., “A low Km, rolipram-sensitive, cAMP-specific phosphodiesterase from human brain: cloning and expression of cDNA, biochemical characterisation of recombinant protein, and tissue distribution of mRNA”, J. Biol. Chem., 1993, 268, 6470-6476. For example, in Example 1 of WO 94/20079, human recombinant PDE4B is described as being expressed in the PDE-deficient yeast Saccharomyces cerevisiae strain GL62, e.g. after induction by addition of 150 uM CuSO4, and 100,000×g supernatant fractions of yeast cell lysates are described for use in the harvesting of PDE4B enzyme.
The ability of compounds to inhibit catalytic activity at PDE4B or 4D (human recombinant), PDE3 (from bovine aorta), PDE5 (human recombinant) or PDE6 (from bovine retina) can optionally be determined by Scintillation Proximity Assay (SPA) in a 96-well format.
Test compounds (as a solution in DMSO, preferably about 2 microliter (ul) volume of DMSO solution) are preincubated at ambient temperature (room temperature, e.g. 19-23° C.) in Wallac Isoplates (code 1450-514) with PDE enzyme in 50 mM Tris-HCl buffer pH 7.5, 8.3 mM MgCl2, 1.7 mM EGTA, 0.05% (w/v) bovine serum albumin for 10-30 minutes (usually 30 minutes). The enzyme concentration is adjusted so that no more than 20% hydrolysis of the substrate defined below occurs in control wells without compound, during the incubation. For the PDE3, PDE4B and PDE4D assays, [5′,8-3H]Adenosine 3′,5′-cyclic phosphate (Amersham Pharmacia Biotech, code TRK.559; or Amersham Biosciences UK Ltd, Pollards Wood, Chalfont St Giles, Buckinghamshire HP8 4SP, UK) is added to give 0.05 uCi per well and about 10 nM final concentration. For the PDE5 and PDE6 assays, [8-^3H]Guanosine 3′,5′-cyclic phosphate (Amersham Pharmacia Biotech, code TRK.392) is added to give 0.05 uCi per well and about 36 nM final concentration. Plates containing assay mixture, preferably approx. 100 ul volume of assay mixture, are mixed on an orbital shaker for 5 minutes and incubated at ambient temperature for 1 hour. Phosphodiesterase SPA beads (Amersham Pharmacia Biotech, code RPNQ 0150) are added (about 1 mg per well) to terminate the assay. Plates are sealed and shaken and allowed to stand at ambient temperature for 35 minutes to 1 hour (preferably 35 minutes) to allow the beads to settle. Bound radioactive product is measured using a WALLAC TRILUX 1450 Microbeta scintillation counter. For inhibition curves, 10 concentrations (e.g. 1.5 nM-30 uM) of each compound are assayed. Curves are analysed using ActivityBase and XLfit (ID Business Solutions Limited, 2 Ocean Court, Surrey Research Park, Guildford, Surrey GU2 7QB, United Kingdom) Results are expressed as pIC50 values.
The ability of compounds to inhibit catalytic activity at PDE4B (human recombinant) or PDE4D (human recombinant) can optionally be determined by IMAP Fluorescence Polarisation (FP) assay (IMAP Explorer kit, available from Molecular Devices Corporation, Sunnydale, Calif., USA; Molecular Devices code: R8062) in 384-well format.
The IMAP FP assay is able to measure PDE activity in an homogenous, non-radioactive assay format. The FP assay uses the ability of immobilised trivalent metal cations, coated onto nanoparticles (tiny beads), to bind the phosphate group of FI-AMP that is produced on the hydrolysis of fluorescein-labelled (FI) cyclic adenosine mono-phosphate (FI-cAMP) to the non-cyclic FI-AMP form. […] Binding of FI-AMP product to the beads (coated with the immobilised trivalent cations) slows the rotation of the bound FI-AMP and leads to an increase in the fluorescence polarisation ratio of parallel to perpendicular light. Inhibition of the PDE reduces/inhibits this signal increase. […]

[5] = test system: atopic dermatitis patients; settings: 0.15% cream versus vehicle and hydrocortisone 17-butyrate (0.1%) cream; cited from earlier work

T1 sequence (Q07343 1-564 isoform Q07343-2): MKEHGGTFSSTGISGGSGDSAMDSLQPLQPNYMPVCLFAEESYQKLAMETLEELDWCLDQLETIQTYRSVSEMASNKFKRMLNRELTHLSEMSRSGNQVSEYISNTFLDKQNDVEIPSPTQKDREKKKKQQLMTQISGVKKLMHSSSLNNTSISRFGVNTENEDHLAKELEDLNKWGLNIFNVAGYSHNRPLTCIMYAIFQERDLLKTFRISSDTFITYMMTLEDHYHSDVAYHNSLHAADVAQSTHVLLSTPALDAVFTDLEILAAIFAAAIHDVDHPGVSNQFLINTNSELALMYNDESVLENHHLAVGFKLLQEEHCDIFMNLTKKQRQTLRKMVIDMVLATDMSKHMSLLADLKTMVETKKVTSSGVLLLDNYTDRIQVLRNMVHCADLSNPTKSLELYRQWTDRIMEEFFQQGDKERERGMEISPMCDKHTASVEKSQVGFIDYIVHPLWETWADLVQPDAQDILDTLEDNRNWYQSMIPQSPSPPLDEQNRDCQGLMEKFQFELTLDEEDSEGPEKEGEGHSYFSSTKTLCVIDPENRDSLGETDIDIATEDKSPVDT

O=C(Nc1c(Cl)cncc1Cl)c1ccc(OC(F)F)c(OCC2CC2)c1 [roflumilast]
rhinal airflow during the treatment period (compared to placebo) [1]: effective in improving rhinal airflow | FEV1 in COPD patients (COPD patients; COPD patients, dose not stated): small improvements

COc1ccc(C2CNC(=O)NC2)cc1O[C@H]1C[C@@H]2CC[C@H]1C2 [CP80,633]
inflammatory parameters in atopic dermatitis patients [2]: reductions of inflammatory parameters

CCn1ncc2c(NC3CCOCC3)c(CNC(=O)c3ccc(-c4ccc(C(=O)NCc5c(C)nc6c(cnn6CC)c5NC5CCOCC5)cc4)cc3)c(C)nc21 [Example 28, N,N′-bis{[1-ethyl-6-methyl-4-(tetrahydro-2H-pyran-4-ylamino)-1H-pyrazolo[3,4-b]pyridin-5-yl]methyl}-4,4′-biphenyldicarboxamide]
IC50 [3]: ~0.126 nM | IC50 [4]: ~0.0251 nM

COc1ccc([C@]2(C#N)CC[C@@H](C(=O)O)CC2)cc1OC1CCCC1 [cilomilast]
forced expiratory volume in 1 s (FEV1) in COPD patients (COPD patients; 15 mg orally twice daily): appears to improve | antiinflammatory effects in COPD patients (COPD patients; COPD patients): appears to have antiinflammatory effects

Nc1nc2c([nH]1)c(=O)n(CC1CC1)c(=O)n2CC1CC1 [cipamfylline]
effectiveness in the treatment of atopic dermatitis patients [5]: significantly more effective than vehicle, but significantly less effective than hydrocortisone 17-butyrate (0.1%) cream
